Patent EP0316592A2, “3'-Fluoro-2',3'-dideoxyuridine, and its therapeutic application” (Stichting REGA V.Z.W., priority 1987, dated 1989)
Where two headings read alike, the source gives them in different places.

Key:
Molt/4F dThd kinase = biological target: T1, Molt/4F dThd kinase (Homo sapiens, UniProt P04183); experiment: Inhibition of dThd kinase (Lineweaver-Burk); format: biochemical; details: for Ki: substrate (2-14C)dThd; for Type of inhibition: with respect to dThd; for inhibitory activity against dThd kinase (in words): at a concentration as high as 750 µM or 1000 µM
T1 construct: endogenous in cells; host or cells: Molt/4F cells (sonicated extract, 30-70% ammonium sulfate fraction, dialyzed)
T1 sequence (P04183 1-234): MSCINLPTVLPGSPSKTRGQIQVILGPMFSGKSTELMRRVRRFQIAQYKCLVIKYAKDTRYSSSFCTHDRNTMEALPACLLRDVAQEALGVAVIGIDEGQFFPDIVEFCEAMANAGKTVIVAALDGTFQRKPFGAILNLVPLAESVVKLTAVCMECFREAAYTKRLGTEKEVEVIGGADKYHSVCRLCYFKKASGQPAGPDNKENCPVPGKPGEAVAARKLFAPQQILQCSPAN
Experimental: (§1) ddUrd and the 3′-fluoro- and 3′-azido-substituted pyrimidine 2′,3′-dideoxynucleoside analogues were evaluated for their inhibitory effect against dThd and dCyd kinase.
(§2) dThd kinase and dCyd kinase were prepared from exponen tially growing Molt/4F cells, which were first washed (2x) with phosphate-buffered saline at 4° and then homogenized by sonication. The suspensions were clarified by centrifugation at 25,000-27,000 x g for 30 min. The 30-70% (NH₄)₂SO₄ precipitate of the supernatant was resuspended in buffer containing 10 uM potassium phosphate, pH 7.5, 10 mM β-mercaptoethanol and 0.1 M KCl, dialyzed against the same buffer, and used for the dThd kinase and the dCyd kinase assays. In these experiments, (2-¹⁴C)dThd and (U-¹⁴C)dCyd served as the radiolabelled substrates. The apparent Km and Ki values were derived from Lineweaver-Burk plots, using a linear regression analysis program.

[1] = biological target: T2, bacterial thymidine phosphorylase (Escherichia coli, UniProt P07650); experiment: Phosphorolytic cleavage by dThd phosphorylase; format: biochemical; details: for susceptibility to phosphorolysis by dThd phosphorylase (in words): purified bacterial dThd phosphorylase; for Initial velocity of phosphorolysis: 25°C, 0.1 M sodium phosphate buffer, pH 7.0, N.D. = not detectable with 25 units of enzyme
T2 construct: purchased Sigma Chemical Co., St. Louis, MO
Experimental: Phosphorolytic cleavage of the test compounds was assessed using purified bacterial dThd phosphorylase (Sigma Chemical Co., St. Louis, MO) with the aid of a Beckman spectrophotometer UV/Vis 5200; the absorbance change during the enzyme reaction was continuously monitored at 25°C at the wavelength where the difference of absorption between the nucleoside and its free base was maximal. The reaction mixtures for all the assays consisted of enzyme and non-satura ting concentrations of nucleoside in 0.1 M sodium phosphate buffer, pH 7.0. The initial velocity of phosphorolysis was expressed as nmol/min/enzyme unit.

[2] = system: Moloney murine sarcoma virus (MSV); experiment: Inhibition of transformation of C3H cells by MSV; format: cell-based; details: for EC50: Moloney murine sarcoma virus, 144 h, 50% reduction of transformation of C3H cells by MSV, 6 days, read-out: MSV-induced cyto-pathogenicity ED50; for MSV-induced cyto-pathogenicity S.I.: Selectivity index or ratio of CD50 to ED50, C3H cells
Experimental: Moloney murine sarcoma virus (MSV) was prepared from tumors induced by in vivo infection of 10 day-old NMRI mice according to the procedure described by De Clercq et al (Proc. Soc. Exp. Biol. Med. 137, 590-594 (1971)).
ddUrd and the substituted pymiridine 2′,3′-dideoxynucleoside analogues were examined for their inhibitory effect on the transformation of mouse embryo C3H fibroblasts by Moloney murine sarcoma virus (MSV).
C3H cells were seeded at 20,000 cells per ml into wells of Costar Tissue Culture Cluster plates (48 wells per plate) and grown to confluency. Cell cultures were then infected by 150 foci-forming units of MSV during 90 min, whereafter the culture medium was replaced by 1 ml fresh medium containing different concentrations of the test compound. After 6 days, the transformation of the cell cultures was examined microscopically.

Molt/4F dCyd kinase = biological target: T3, Molt/4F dCyd kinase (Homo sapiens, UniProt P27707); experiment: Inhibition of dCyd kinase (Lineweaver-Burk); format: biochemical; details: for Type of inhibition: with respect to dCyd
T3 construct: endogenous in cells; host or cells: Molt/4F cells (sonicated extract, 30-70% ammonium sulfate fraction, dialyzed)
Experimental: as §1
as §2, with “program. The assay procedures have been described in detail (J. Balzarini et al, (1983) and J. Balzarini et al, Biochem. Pharmacol. 31, 3673-3682 (1982)).” for “program.”

[3] = system: human B- and T-cell lines; experiment: Cytostatic effect, pooled over several cell lines; format: cell-based; details: for IC50: read-out: ID50 (the source's name)
Experimental: All assays were performed in flat bottom Microtest III Plates (96 wells) (Falcon) as previously described by E. De […] et al (Mol. Pharmacol. 19, 321-330 (1981)). Briefly, the cells were suspended in growth medium and added to the microplate wells at a density of 7.5 x 10^4 cells/well (200 μ1) in the presence of varying concentrations of the test compounds. The cells were then allowed to proliferate for 68-72 hours at 37°C in a humidified, CO2-controlled atmosphere. At the end of the incubation period, the cells were counted with a Coulter Counter (Coulter Electronics Ltd., Harpenden Herts, U.K.).

[4] = Homo sapiens, CEM and Molt/4F cells, range over both compounds and both cell lines
[5] = Homo sapiens, Raji cells, range over both compounds

T3 sequence (P27707 whole entry): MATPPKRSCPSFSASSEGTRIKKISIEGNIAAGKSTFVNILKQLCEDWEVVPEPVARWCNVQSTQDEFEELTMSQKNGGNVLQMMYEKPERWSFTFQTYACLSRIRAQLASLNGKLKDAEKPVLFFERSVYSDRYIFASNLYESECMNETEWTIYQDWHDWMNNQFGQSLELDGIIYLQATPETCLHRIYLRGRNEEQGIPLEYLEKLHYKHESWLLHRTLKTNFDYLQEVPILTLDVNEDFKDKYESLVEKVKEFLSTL
T2 sequence (P07650 whole entry): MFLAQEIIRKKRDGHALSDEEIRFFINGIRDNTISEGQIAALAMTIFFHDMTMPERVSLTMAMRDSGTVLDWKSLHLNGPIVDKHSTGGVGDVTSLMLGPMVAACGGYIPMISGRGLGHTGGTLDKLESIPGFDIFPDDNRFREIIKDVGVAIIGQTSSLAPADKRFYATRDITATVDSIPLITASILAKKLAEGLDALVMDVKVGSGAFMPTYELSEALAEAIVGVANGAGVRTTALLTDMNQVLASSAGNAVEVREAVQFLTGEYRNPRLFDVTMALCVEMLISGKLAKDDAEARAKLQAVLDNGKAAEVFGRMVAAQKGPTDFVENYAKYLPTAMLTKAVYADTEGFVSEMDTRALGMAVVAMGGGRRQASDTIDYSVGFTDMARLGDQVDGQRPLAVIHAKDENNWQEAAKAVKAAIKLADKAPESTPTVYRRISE

SMILES	Ki (Molt/4F dThd kinase; dThd kinase) [µM]	Type of inhibition (Molt/4F dThd kinase; dThd kinase)	Ki/Km (Molt/4F dThd kinase; dThd kinase, Km 2.5 to 6.6 µM)	susceptibility to phosphorolysis by dThd phosphorylase (in words) [1]	EC50 [2] [µM]	Ki/Km (Molt/4F dThd kinase)	inhibitory activity against dThd kinase (in words) (Molt/4F dThd kinase)	Initial velocity of phosphorolysis [1] [nmol/min/unit]	MSV-induced cyto-pathogenicity S.I. [2]	Type of inhibition (Molt/4F dCyd kinase)	IC50 [3, 4] [µM]	IC50 [3, 5] [µM]	Ki/Km (Molt/4F dCyd kinase; Km 5.2 to 6.4 µM)	Ki (Molt/4F dCyd kinase; substrate (U-14C)dCyd) [µM]	fold higher susceptibility of CEM cells to the cytostatic action than the other cell lines ([3]; CEM versus other cell lines) [fold]	IC50 ([3]; the other cell lines (all but CEM)) [µM]
CCc1cn([C@H]2C[C@H](F)[C@@H](CO)O2)c(=O)[nH]c1=O [FddEtUrd, 3′-fluoro-2′,3′-dideoxy-5-ethyluridine]	266	competitive	72	no phosphorolytic cleavage whatsoever	> 400											
O=c1ccn([C@H]2CC[C@@H](CO)O2)c(=O)[nH]1 [ddUrd, 2′-3′-dideoxyuridine]	> 1000				> 400	>250	no inhibitory activity	0.270								
[N-]=[N+]=N[C@H]1C[C@H](n2ccc(=O)[nH]c2=O)O[C@@H]1CO [AzddUrd, 3′-azido-2′,3′-dideoxyuridine]	224	competitive			15	71			>27							
Nc1ccn([C@H]2CC[C@@H](CO)O2)c(=O)n1 [ddCyd, 2′,3′-Dideoxycytidine]				totally resistant	25				>16	competitive	6 to 24	23 to 95				
Nc1ccn([C@H]2C[C@H](F)[C@@H](CO)O2)c(=O)n1 [FddCyd, 3′-fluoro-2′,3′-dideoxycytidine]				totally resistant	284				> 1.2	competitive	6 to 24	23 to 95	63	360		
CCc1cn([C@H]2C[C@H](N=[N+]=[N-])[C@@H](CO)O2)c(=O)[nH]c1=O [AzddEtUrd, 3′-azido-2′,3′-dideoxy-5-ethyluridine]	175	competitive	28	no phosphorolytic cleavage whatsoever	> 200											
CCc1cn([C@H]2CC[C@@H](CO)O2)c(=O)[nH]c1=O [ddEtUrd, 2′,3′-Dideoxy-5-ethyluridine]	> 750		>200	no phosphorolytic cleavage whatsoever	> 400		no inhibitory activity									
O=c1ccn([C@H]2C[C@H](F)[C@@H](CO)O2)c(=O)[nH]1 [FddUrd, 3′-fluoro-2′,3′-dideoxyuridine]	833	competitive	171		> 400			0.018							70	> 1000
